{
  "source": "patent US20050019315A1",
  "about": "“Odor control compositions and methods” (Novozymes North America, Inc., priority 2003, published 2005)",
  "assay": "Odor panel rating of glucose/gluconic acid solutions inoculated with odorous filtrate",
  "details": "capped beakers, 40° C., 7 days",
  "description": "Another 250 mL of (4) 10 mM glucose was put it in beaker 4. 20 mg protein/L of carbohydrate oxidase (Microdochium nivale carbohydrate oxidase, Novozymes A/S) was added to beaker 4 and it was kept at a 40° C. for 1 hr. 0.5 mL of odorous 3-day filtrate from the aerobic control in Example 2 was added to all of the beakers. The beaker were capped and placed in a 40° C. water bath for 7 days. At the end of the incubation, a panel smelled the samples as described in Example 1.",
  "data": [
    {"molecule": "O=C(O)[C@H](O)[C@@H](O)[C@H](O)[C@H](O)CO", "note": "[Gluconic Acid, gluconic acid]", "values": [
      {"measurement": "formation of odor (in words)", "value": "will not lead to odorous smell"},
      {"measurement": "Odor Level", "setting": "0.5 mL odorous filtrate added, rating 1 to 5, 5 worst", "value": 1}
    ]}
  ]
}
